Consider ten molecules from patent publication US6406680B1, “X-ray contrast agents” (Nycomed Imaging AS, priority 1999, dated 2002).

Molecules are shown by their SMILES. In brackets after ≈: the same amount, converted by molar mass.

Data set [1] in a line: Aqueous solubility at 20° C. In kind it is physicochemical. The following applies: water.
The next data set has as its system mice. The following applies: cited from earlier work.

Consider `OCC(I)=C(I)CO` [Compound 12, 2,3-Diiodo-2-butene-1,4-diol], for which the solubility in data set [1] and in data set [1] (Table 1) was 0.534 mg/mL (≈ 1.57 mM) in each case.
In the case of `OCC(I)=C(I)COCC(O)CO` (centres unmarked) [Compound 13, 3-[(2,3-Diiodo-4-hydroxy-2-butenyl)oxy]-propane-1,2-diol], the results for the solubility in data set [1] and in data set [1] (Table 1) were greater than 1.2 mg/mL and greater than 1200 mg/mL, respectively.
Turning to `CC(=O)N(CC(O)CO)c1c(I)c(C(=O)NCC(O)CO)c(I)c(C(=O)NCC(O)CO)c1I` (centres unmarked) [Iohexol, iohexol, reference compound], in data set [1] (Table 1), the solubility is greater than 1200 mg/mL. Besides, the “toxicity (LD 50 in mice, intravenous)” value in the data set on mice is 33700 mg/kg.
Consider `OCC(O)COCC(I)=C(I)I` (centres unmarked) [Compound 6, 3-(2,3,3-Triiodo-2-propenyloxy)-propane-1,2-diol], for which the solubility in data set [1] and in data set [1] (Table 1) was 0.5 mg/mL (≈ 0.981 mM) each time.
Regarding `OCC(I)=C(I)I` [Compound 3, 2,3,3-Triiodo-2-propene-1-ol], the solubility in data set [1] and in data set [1] (Table 1) was 0.198 mg/mL (≈ 0.454 mM) throughout.
In the case of `OCCOCC(I)=C(I)COCCO` [Compound 9, 2,2′-[2,3-Diiodo-2-butene-1,4-diylbis(oxy)]-bis-ethanol], the solubility in data set [1] and in data set [1] (Table 1) was 7.2 mg/mL (≈ 16.8 mM) in each case.
As to `OCC(I)=C(I)C(I)=C(I)CO` [Compound 16, 2,3,4,5-Tetraiodo-2,4-hexadiene-1,6-diol], the solubility in data set [1] and in data set [1] (Table 1) was 0.183 mg/mL (≈ 0.296 mM) in each case.
`OCC(O)COCC(I)=C(I)COCC(O)CO` (centres unmarked) [Compound 14, 3,3′-[2,3-Diiodo-2-butene-1,4-diylbis(oxy)]-bis-propane-1,2-diol]: the solubility is greater than 1.2 mg/mL in data set [1] and greater than 1200 mg/mL in data set [1] (Table 1).
As for `OCC(O)COCC(I)=CI` (centres unmarked) [Compound 5, 3-(2,3-Diiodo-2-propenyloxy)-propane-1,2-diol], the solubility in data set [1] and in data set [1] (Table 1) was 18.4 mg/mL (≈ 47.9 mM) each time.
Turning to `OCC(I)=CI` [Compound 2, 2,3-Diiodo-2-propene-1-ol], the solubility stood at 3.91 mg/mL (≈ 12.6 mM) in data set [1] and 0.391 mg/mL (≈ 1.26 mM) in data set [1] (Table 1).

As a reminder, the solubility is the concentration that dissolves in the medium under given conditions. Read a low solubility as a poorly soluble substance.
